Assay results published in US7026281B1, “Antagonistic analogs of GH-RH inhibiting IGF-I and -II” (The Administrators of the Tulane Educational Fund, priority 1998, dated 2006).
pKi: −log10 of the molar value. Square brackets hold non-standard residues; d marks the D form. Peptide text beside a SMILES is read from it. * marks the point of attachment. Phe(4-Cl) = N[C@@H](Cc1ccc(Cl)cc1)C(=O)O; hArg = N=C(N)NCCCC[C@H](N)C(=O)O; Nle = CCCC[C@H](N)C(=O)O; Abu = CC[C@H](N)C(=O)O; PhAc = O=C(Cc1ccccc1)*

Columns and labels:
[1] = test system: hGH-RH(1–29)NH2 induced GH release; test: Inhibition of GH release in superfused rat pituitary system; type: cell-based; details: antagonist 30 nM; for Inhibition of GH release (%) 30 min: 1 nM hGH-RH(1–29)NH2 30 min later; for Inhibition of GH release (%) 60 min: 1 nM hGH-RH(1–29)NH2 60 min later; for Inhibition of GH release (%) 90 min: 1 nM hGH-RH(1–29)NH2 90 min later; for Inhibition of GH release (%) 120 min: 1 nM hGH-RH(1–29)NH2 120 min later; for Inhibition of GH release (%) 0 min: 1 nM hGH-RH(1–29)NH2 at 0 min
Description: Superfused Rat Pituitary System.
The analogs were tested in vitro in a test described earlier (S. Vigh and A. V. Schally, Peptides 5:241–347, 1984) with modification (Z. Rekasi and A. V. Schally, P.N.A.S. 90:2146–2149, 1993).
Briefly, the cells are preincubated with peptides for 9 minutes (3 mL) at various concentrations. Immediately after the incubation, 1 nM hGH-RH(1–29)NH2 is administered for 3 minutes (1 mL) [0 minute response]. To check the duration of the antagonistic effect of the analogue, 1 nM hGH-RH(1–29)NH2 is applied 30, 60, 90, and 120 minutes later for 3 minutes [30, 60, 90, 120 min responses]. Net integral values of the GH responses are evaluated. GH responses are compared to and expressed as percent of the original GH response induced by 1 nM GH-RH(1–29)NH2. The effect of the new antagonists are compared to that of [Ac-Tyr^1,D-Arg^2]hGH-RH(1–29)NH2, the “Standard antagonist”.
Growth Hormone Radio-immunoassay.
Rat GH levels in aliquots of undiluted and diluted superfusion samples were measured by double-antibody radioimmunoassay using materials supplied by the National Hormone and Pituitary Program, Baltimore, Md. The results of RIA were analyzed with a computer program developed in our institute (V. Csernus and A. V. Schally, in Neuroendocrine Research Methods, Harwood Academic (Greenstein, B. D. ed., London, pp. 71–109, 1991), hereby incorporated by reference. Inter-assay variation was less than 15% and intra-assay variation was less than 10%.

[2] = molecular target: T1, rat pituitary GH-RH receptors (Rattus norvegicus, UniProt Q02644); test: GH-RH radioreceptor binding assay, rat anterior pituitary membrane homogenates; details: for pKi: competition with [His1,125I-Tyr10,Nle27]hGH-RH(1–32)NH2; for R.A. (relative affinity compared to Standard antagonist): ratio of Ki values
T1 construct: from tissue; host or cells: anterior pituitary of male Sprague-Dawley rats, crude membrane homogenates
T1 sequence (Q02644 23-464): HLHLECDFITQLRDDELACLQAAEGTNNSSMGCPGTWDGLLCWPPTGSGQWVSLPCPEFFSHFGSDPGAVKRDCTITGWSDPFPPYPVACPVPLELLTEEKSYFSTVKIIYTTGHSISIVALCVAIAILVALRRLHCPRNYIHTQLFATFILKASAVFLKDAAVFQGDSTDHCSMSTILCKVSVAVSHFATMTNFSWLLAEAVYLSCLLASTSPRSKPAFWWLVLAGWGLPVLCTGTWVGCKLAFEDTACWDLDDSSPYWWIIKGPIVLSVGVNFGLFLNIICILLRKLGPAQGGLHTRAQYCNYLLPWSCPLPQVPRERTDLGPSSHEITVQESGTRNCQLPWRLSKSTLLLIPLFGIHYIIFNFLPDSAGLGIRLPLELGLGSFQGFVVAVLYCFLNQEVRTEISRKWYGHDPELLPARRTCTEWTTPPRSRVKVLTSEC
Description: GH-RH Binding Assay. A sensitive radioreceptor binding assay was developed to determine the binding characteristics of the antagonists of GH-RH (G. Halmos, A. V. Schally et al., Receptor 3, 87–97, 1993), hereby incorporated by reference. The assay is based on binding of labelled [His^1,Nle^27]hGH-RH(1–32)NH2 to rat anterior pituitary membrane homogenates. Iodinated derivatives of [His^1,Nle^27]hGH-RH(1–32)NH2 are prepared by the chloramine-T method (F. C. Greenwood et al., Biochemistry 89:114–123, 1963), hereby incorporated by reference. Pituitaries from male Sprague-Dawley rats (250–300 g) are used to prepare crude membranes. For saturation binding analyses, membrane homogenates are incubated with at least 6 concentrations of [His^1,^125I-Tyr^10,Nle^27]hGH-RH(1–32) NH2, ranging from 0.005 to 0.35 nM in the presence or absence of excess unlabelled peptide (1 μM).
The pellet is counted for radioactivity in a γ-counter. The affinities of the antagonist peptides tested to rat pituitary GH-RH receptors are determined in competitive binding experiments. The final binding affinities are estimated by Ki (dissociation constant of the inhibitor-receptor complex) and are determined by the Ligand PC and McPherson computer programs of Munson and Rodbard (P. J. Munson and D. Rodbard, Anal. Biochem. 107. 220–239, 1980). Relative affinities compared to [Ac-Tyr^1,D-Arg^2]hGH-RH(1–29)NH2, the Standard antagonist, are calculated as the […].

[3] = test system: GH release stimulated by hGH-RH(1–29)NH2; test: In vivo inhibition of serum GH response in rats; parameters: species or system rat; details: for Inhibition of the GH release stimulated by hGH-RH(1–29)NH2 (in words): 80 μg/kg i.v., rats
Description: GH-RH antagonistic effect of the analogs was tested on young male Sprague-Dawley rats (200–250 g). In each experiment, 5 groups of 7 animals each were used. The compounds (80 μg/kg) and GH-RH(1–29)NH2 (3 μg/kg) were dissolved in 5.5% mannitol and given intravenously to the jugular vein of the rats under Nembutal anesthesia. The time elapsed between the administrations of the antagonist and GH-RH varied between groups, according to the following schedule. The first group of animals received GH-RH injection 5 min after the administration of the antagonist; for the second, third and fourth group of animals, the time interval elapsed between the injection of the antagonist and that of GH-RH was 15, 30, and 60 min, respectively. The control group was first injected with the solvent alone instead of the antagonist, followed by a GH-RH injection 5 min later.
0.4 mL blood samples were taken for GH RIA before the administration of the antagonist (“blood0”), and 5 min after the injection of GH-RH (“blood1”). The GH response in each group was calculated as rGH=(GHblood1/GHblood0), mean±S.E.M. of the individual differences. Relative inhibition of GH response (%) in each group treated was calculated as […].

[4] = antagonist 80 μg/kg i.v. 5 min before GH-RH
[5] = antagonist 80 μg/kg i.v. 15 min before GH-RH
[6] = antagonist 80 μg/kg i.v. 15 min before GH-RH 3 μg/kg
[7] = antagonist 80 μg/kg i.v. 30 min before GH-RH
[8] = antagonist 80 μg/kg i.v. 30 min before GH-RH 3 μg/kg
[9] = antagonist 80 μg/kg i.v. 60 min before GH-RH
[10] = antagonist 80 μg/kg i.v. 60 min before GH-RH 3 μg/kg
[11] = rGH=GHblood1/GHblood0, antagonist 80 μg/kg i.v. 5 min before GH-RH 3 μg/kg

Compound | Inhibition of GH release (%) 30 min [1] [%] | Inhibition of GH release (%) 60 min [1] [%] | Inhibition of GH release (%) 90 min [1] [%] | Inhibition of GH release (%) 120 min [1] [%] | Inhibition of GH release (%) 0 min [1] [%] | pKi [2] | R.A. (relative affinity compared to Standard antagonist) [2] | Inhibition of the GH release stimulated by hGH-RH(1–29)NH2 (in words) [3] | Relative inhibition % of GH response [3, 4] [%] | Relative inhibition % of GH response [3, 5] [%] | GH response mean ± S.E.M. [3, 6] | Relative inhibition % of GH response [3, 7] [%] | GH response mean ± S.E.M. [3, 8] | Relative inhibition % of GH response [3, 9] [%] | GH response mean ± S.E.M. [3, 10] | GH response mean ± S.E.M. [3, 11]
CCCC[C@H](NC(=O)[C@@H](NC(=O)[C@H](CC(=O)O)NC(=O)[C@H](CCC(N)=O)NC(=O)[C@H](CC(C)C)NC(=O)[C@H](CC(C)C)NC(=O)[C@H](CCCCN)NC(=O)[C@H](CCCNC(=N)N)NC(=O)[C@H](C)NC(=O)[C@H](CO)NC(=O)[C@H](CC(C)C)NC(=O)[C@H](CCC(N)=O)NC(=O)[C@H](CC)NC(=O)[C@H](CC(C)C)NC(=O)[C@@H](NC(=O)[C@H](CCCCN)NC(=O)[C@H](CCCNC(=N)N)NC(=O)[C@H](Cc1ccc(O)cc1)NC(=O)[C@H](CCCCNC(=N)N)NC(=O)[C@H](CC(N)=O)NC(=O)[C@@H](NC(=O)[C@H](Cc1ccc(Cl)cc1)NC(=O)[C@@H](NC(=O)[C@H](C)NC(=O)[C@H](CC(=O)O)NC(=O)[C@@H](CCCNC(=N)N)NC(=O)[C@H](Cc1ccc(O)cc1)NC(=O)Cc1ccccc1)[C@@H](C)CC)[C@@H](C)O)C(C)C)[C@@H](C)CC)C(=O)N[C@H](CCCNC(=N)N)C(=O)N[C@@H](CCCCNC(=N)N)C(N)=O [Peptide 4, [PhAc^0, D-Arg^2, Phe(pCl)^6, Har^9, Abu^15, Nle^27, D-Arg^28, Har^29]hGH-RH(1–29)NH2] (PhAc-Y[dR]DAI[Phe(4-Cl)]TN[hArg]YRKVL[Abu]QLSARKLLQDI[Nle][dR][hArg]-NH2) | 86 | 80 | 79 | 68 | 83 | 10.06 | 34 | strong and long-lasting inhibition | 82 | 43 | 7.73 ± 1.12 | 7 | 12.00 ± 2.54 | 8 | 11.88 ± 0.90 | 3.08 ± 0.58
CCCC[C@H](NC(=O)[C@@H](NC(=O)[C@H](CC(=O)O)NC(=O)[C@H](CCC(N)=O)NC(=O)[C@H](CC(C)C)NC(=O)[C@H](CC(C)C)NC(=O)[C@H](CCCCN)NC(=O)[C@H](CCCNC(=N)N)NC(=O)[C@H](C)NC(=O)[C@H](CO)NC(=O)[C@H](CC(C)C)NC(=O)[C@H](CCC(N)=O)NC(=O)[C@H](CC)NC(=O)[C@H](CC(C)C)NC(=O)[C@@H](NC(=O)[C@H](CCCCN)NC(=O)[C@H](CCCNC(=N)N)NC(=O)[C@H](Cc1ccc(OC)cc1)NC(=O)[C@H](CO)NC(=O)[C@H](CC(N)=O)NC(=O)[C@@H](NC(=O)[C@H](Cc1ccc(Cl)cc1)NC(=O)[C@@H](NC(=O)[C@H](C)NC(=O)[C@H](CC(=O)O)NC(=O)[C@@H](CCCNC(=N)N)NC(=O)[C@H](Cc1ccc(O)cc1)NC(=O)Cc1ccccc1)[C@@H](C)CC)[C@@H](C)O)C(C)C)[C@@H](C)CC)C(=O)N[C@@H](CO)C(=O)N[C@H](CCCNC(=N)N)C(N)=O [Peptide 16, [PhAc^0, D-Arg^2, Phe(pCl)^6, Tyr(Me)^10, Abu^15, Nle^27, D-Arg^29]hGH-RH(1–29)NH2] (PhAc-Y[dR]DAI[Phe(4-Cl)]TNSY(Me)RKVL[Abu]QLSARKLLQDI[Nle]S[dR]-NH2) | 87 | 83 | 56 | 65 | 65 | 10.15 | 42 | strong and long-lasting inhibition | 77 | 70 | 3.44 ± 0.62 | 48 | 5.24 ± 1.36 | 0 | 9.19 ± 1.89 | 2.89 ± 0.65
